Assay results published in article PMC6222819, “Assessment of Binding Interaction between Bovine Lactoferrin and Tetracycline Hydrochloride: Multi-Spectroscopic Analyses and Molecular Modeling” (Molecules : A Journal of Synthetic Chemistry and Natural …, 2018).
Structures can show the parent of a compound that is named as a salt.

Molecular target: T1, bovine lactoferrin (bLf) (Bos taurus, UniProt P24627)
T1 construct: gene LTF; 80 kDa; single polypeptide chain
Test: microscale thermophoresis
Type: binding

T1 sequence (P24627 20-708): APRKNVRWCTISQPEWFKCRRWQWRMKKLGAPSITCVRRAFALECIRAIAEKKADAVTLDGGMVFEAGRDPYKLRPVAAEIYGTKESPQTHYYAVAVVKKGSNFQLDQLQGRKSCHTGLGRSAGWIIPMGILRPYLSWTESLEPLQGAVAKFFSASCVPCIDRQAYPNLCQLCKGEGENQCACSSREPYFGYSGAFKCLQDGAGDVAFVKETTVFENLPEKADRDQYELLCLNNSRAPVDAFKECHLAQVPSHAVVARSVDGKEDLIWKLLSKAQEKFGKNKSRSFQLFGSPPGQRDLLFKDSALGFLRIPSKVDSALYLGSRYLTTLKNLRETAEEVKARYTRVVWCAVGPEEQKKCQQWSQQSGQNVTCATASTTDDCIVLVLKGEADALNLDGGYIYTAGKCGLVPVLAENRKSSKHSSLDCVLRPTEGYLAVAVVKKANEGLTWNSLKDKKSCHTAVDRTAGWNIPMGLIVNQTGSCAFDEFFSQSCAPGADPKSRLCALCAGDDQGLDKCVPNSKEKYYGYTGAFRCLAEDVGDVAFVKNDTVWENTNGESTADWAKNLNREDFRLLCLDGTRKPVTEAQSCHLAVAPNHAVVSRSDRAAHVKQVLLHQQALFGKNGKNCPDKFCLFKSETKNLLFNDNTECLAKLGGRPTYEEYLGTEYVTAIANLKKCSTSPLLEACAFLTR

Compound `CN(C)[C@@H]1C(O)=C(C(N)=O)C(=O)[C@@]2(O)C(O)=C3C(=O)c4c(O)cccc4[C@@](C)(O)[C@H]3C[C@@H]12` [Tetracycline hydrochloride] has a Kd of 35.2 µM.
